The IC50 is the concentration needed to halve the response being measured.

28 molecules from patent publication US20220135567A1, “TYK2 PSEUDOKINASE LIGANDS” (Ventyx Biosciences, Inc., priority 2019, published 2022) can be followed below.

A value given as a limit tells only on which side of the number the result lay.

In the assay the test system is IFN-a/Jak1Tyk2. As to the kind of experiment: Co-stimulation assay in lysed whole blood: IFNa (JAK1/TYK2) stimulated STAT1 phosphorylation. It counts as cell-based. Particulars: 20 min, lysed human whole blood, IFNa 100 ng/mL + GM-CSF 10 ng/mL, pSTAT1 by flow cytometry. The essentials:
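Red-cell-lysed human whole blood, pretreated with compound for 1 h at 37°C, was stimulated 20 min at 37°C with IFNa (100 ng/mL final) plus GM-CSF (10 ng/mL final). Cells were then fixed/lysed, permeabilised in Perm Buffer III and stained overnight for pSTAT1 (PE) and pSTAT5. Read-out by flow cytometry.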
(In flow cytometry, cells or beads pass a laser one at a time.)

Turning to `CNc1cc(Nc2cccc3c2OCCC3)nc2c(C(=O)NC3CCC3)cnn12` [Compound 89, 5-(chroman-8-ylamino)-N-cyclobutyl-7-(methylamino)pyrazolo[1,5-a]pyrimidine-3-carboxamide], the IC50 is below 100 nM.

With `CNc1cc(Nc2cccc3c2OCCC3)nc2c(C(=O)NCC(C)(C)CO)cnn12` [Compound 90, 5-(chroman-8-ylamino)-N-(3-hydroxy-2,2-dimethylpropyl)-7-(methylamino)pyrazolo[1,5-a]pyrimidine-3-carboxamide], the IC50 was below 100 nM.

Turning to `CNc1cc(Nc2cccn(C)c2=O)nc2c(C(=O)NC3CC(F)(F)C3)cnn12` [Compound 91, N-(3,3-difluorocyclobutyl)-5-((1-methyl-2-oxo-1,2-dihydropyridin-3-yl)amino)-7-(methylamino)pyrazolo[1,5-a]pyrimidine-3-carboxamide], the IC50 was in the range of 1000 to 10000 nM.

For the molecule `CNc1cc(Nc2cc(Cl)cc3c2OCCO3)nc2c(C(=O)NCC(C)(C)CO)cnn12` [Compound 92, 5-((7-chloro-2,3-dihydrobenzo[b][1,4]dioxin-5-yl)amino)-N-(3-hydroxy-2,2-dimethylpropyl)-7-(methylamino)pyrazolo[1,5-a]pyrimidine-3-carboxamide], the IC50 is below 100 nM.

Turning to `[2H]C([2H])([2H])n1cccc(Nc2cc(NC)n3ncc(C(=O)NC4CCC4)c3n2)c1=O` [Compound 93, N-cyclobutyl-5-((1-(methyl-d3)-2-oxo-1,2-dihydropyridin-3-yl)amino)-7-(methylamino)pyrazolo[1,5-a]pyrimidine-3-carboxamide], the IC50 is below 100 nM.

As to `[2H]C([2H])([2H])Nc1cc(Nc2cccn(C)c2=O)nc2c(C(=O)NC3CCC3)cnn12` [Compound 94, N-cyclobutyl-5-((1-methyl-2-oxo-1,2-dihydropyridin-3-yl)amino)-7-((methyl-d3)amino)pyrazolo[1,5-a]pyrimidine-3-carboxamide], the IC50 is below 100 nM.

With `CNc1cc(Nc2cccc3c2OCCO3)nc2c(C(=O)NC3(C#N)CC3)cnn12` [Compound 95, N-(1-cyanocyclopropyl)-5-((2,3-dihydrobenzo[b][1,4]dioxin-5-yl)amino)-7-(methylamino)pyrazolo[1,5-a]pyrimidine-3-carboxamide], the IC50 was below 100 nM.

Take `CNc1cc(Nc2cccc3c2OCCO3)nc2c(C(=O)NC3CCC3)cnn12` [Compound 96, N-cyclobutyl-5-((2,3-dihydrobenzo[b][1,4]dioxin-5-yl)amino)-7-(methylamino)pyrazolo[1,5-a]pyrimidine-3-carboxamide]: the IC50 was below 100 nM.

For the molecule `CNc1cc(Nc2cccc3c2OCCO3)nc2c(C(=O)NC3C[C@@H]3F)cnn12` (stereo partly drawn) [Compound 97, 5-((2,3-dihydrobenzo[b][1,4]dioxin-5-yl)amino)-N-((2S)-2-fluorocyclopropyl)-7-(methylamino)pyrazolo[1,5-a]pyrimidine-3-carboxamide], the IC50 is below 100 nM.

As for `[2H]C([2H])([2H])Nc1cc(Nc2cc(F)cc3c2OCCO3)nc2c(C(=O)NCC(C)(C)CO)cnn12` [Compound 98, 5-((7-fluoro-2,3-dihydrobenzo[b][1,4]dioxin-5-yl)amino)-N-(3-hydroxy-2,2-dimethylpropyl)-7-((methyl-d3)amino)pyrazolo[1,5-a]pyrimidine-3-carboxamide], the IC50 is below 100 nM.

For `CNc1cc(Nc2cccn(-c3cccc(C)n3)c2=O)nc2c(C(=O)NC3CC(C#N)C3)cnn12` (stereo not shown) [Compound 99, N-(3-cyanocyclobutyl)-5-((6′-methyl-2-oxo-2H-[1,2′-bipyridin]-3-yl)amino)-7-(methylamino)pyrazolo[1,5-a]pyrimidine-3-carboxamide], the IC50 fell in the range of 1000 to 10000 nM.

For `CNc1cc(Nc2cccn(-c3cccc(C)n3)c2=O)nc2c(C(=O)NC3CC(O)C3)cnn12` (stereo not shown) [Compound 100, N-(3-hydroxycyclobutyl)-5-((6′-methyl-2-oxo-2H-[1,2′-bipyridin]-3-yl)amino)-7-(methylamino)pyrazolo[1,5-a]pyrimidine-3-carboxamide], the IC50 is 1000 to 10000 nM.

As to `CNc1cc(Nc2cccn(-c3ccc(OC)nn3)c2=O)nc2c(C(=O)N[C@@H]3C[C@@H]3F)cnn12` [Compound 101, N-((1R,2S)-2-fluorocyclopropyl)-5-((1-(6-methoxypyridazin-3-yl)-2-oxo-1,2-dihydropyridin-3-yl)amino)-7-(methylamino)pyrazolo[1,5-a]pyrimidine-3-carboxamide], the IC50 is below 100 nM.

In the case of `CNc1cc(Nc2cccc3c2OCCO3)nc2c(C(=O)NC3CC(O)C3)cnn12` (stereo not shown) [Compound 102, 5-((2,3-dihydrobenzo[b][1,4]dioxin-5-yl)amino)-N-(3-hydroxycyclobutyl)-7-(methylamino)pyrazolo[1,5-a]pyrimidine-3-carboxamide], the IC50 is below 100 nM.

`CNc1cc(Nc2cccn(-c3ccc(OC)nn3)c2=O)nc2c(C(=O)NCC(C)(C)O)cnn12` [Compound 103, N-(2-hydroxy-2-methylpropyl)-5-((1-(6-methoxypyridazin-3-yl)-2-oxo-1,2-dihydropyridin-3-yl)amino)-7-(methylamino)pyrazolo[1,5-a]pyrimidine-3-carboxamide]: the IC50 fell in the range of 1000 to 10000 nM.

Consider `CNc1cc(Nc2cccn(-c3ccc(OC)nn3)c2=O)nc2c(C(=O)NC3CC(O)C3)cnn12` (stereo not shown) [Compound 104, N-(3-hydroxycyclobutyl)-5-((1-(6-methoxypyridazin-3-yl)-2-oxo-1,2-dihydropyridin-3-yl)amino)-7-(methylamino)pyrazolo[1,5-a]pyrimidine-3-carboxamide], for which the concentration for half-maximal inhibition (IC50) lay in the range of 100 to 1000 nM.

Turning to `CNc1cc(Nc2cccn(-c3ccc(OC)nn3)c2=O)nc2c(C(=O)NCC(C)(O)CO)cnn12` (stereo not shown) [Compound 105, N-(2,3-dihydroxy-2-methylpropyl)-5-((1-(6-methoxypyridazin-3-yl)-2-oxo-1,2-dihydropyridin-3-yl)amino)-7-(methylamino)pyrazolo[1,5-a]pyrimidine-3-carboxamide], the IC50 is above 3000 nM.

On to `CNc1cc(Nc2cccn(-c3ccc(OC)nn3)c2=O)nc2c(C(=O)NC3CCOC3)cnn12` (stereo not shown) [Compound 106, 5-((1-(6-methoxypyridazin-3-yl)-2-oxo-1,2-dihydropyridin-3-yl)amino)-7-(methylamino)-N-(tetrahydrofuran-3-yl)pyrazolo[1,5-a]pyrimidine-3-carboxamide], for which the IC50 is 100 to 1000 nM.

Turning to `CNc1cc(Nc2cccn(C)c2=O)nc2c(C(=O)N[C@H]3C[C@H]3F)cnn12` [Compound 107, N-((1S,2R)-2-fluorocyclopropyl)-5-((1-methyl-2-oxo-1,2-dihydropyridin-3-yl)amino)-7-(methylamino)pyrazolo[1,5-a]pyrimidine-3-carboxamide], the IC50 was below 100 nM.

For `CCOc1ccc(-n2cccc(Nc3cc(NC)n4ncc(C(=O)NC5CCC5)c4n3)c2=O)nn1` [Compound 108, N-cyclobutyl-5-((1-(6-ethoxypyridazin-3-yl)-2-oxo-1,2-dihydropyridin-3-yl)amino)-7-(methylamino)pyrazolo[1,5-a]pyrimidine-3-carboxamide], the IC50 was below 100 nM.

As for `CNc1cc(Nc2cc(F)cc3c2OCCO3)nc2c(C(=O)NCC(C)(C)CO)cnn12` [Compound 109, 5-((7-fluoro-2,3-dihydrobenzo[b][1,4]dioxin-5-yl)amino)-N-(3-hydroxy-2,2-dimethylpropyl)-7-(methylamino)pyrazolo[1,5-a]pyrimidine-3-carboxamide], the IC50 is below 100 nM.

For the molecule `CNc1cc(Nc2cccn(-c3ccnc(C)n3)c2=O)nc2c(C(=O)NC3CCC3)cnn12` [Compound 110, N-cyclobutyl-7-(methylamino)-5-((1-(2-methylpyrimidin-4-yl)-2-oxo-1,2-dihydropyridin-3-yl)amino)pyrazolo[1,5-a]pyrimidine-3-carboxamide], the IC50 was below 100 nM.

`CNc1cc(Nc2cccn(-c3cccc(C)n3)c2=O)nc2c(C(=O)N[C@H]3C[C@H]3F)cnn12` [Compound 111, N-((1S,2R)-2-fluorocyclopropyl)-5-((6′-methyl-2-oxo-2H-[1,2′-bipyridin]-3-yl)amino)-7-(methylamino)pyrazolo[1,5-a]pyrimidine-3-carboxamide]: the IC50 was below 100 nM.

As to `CNc1cc(Nc2cccn(-c3cccc(C)n3)c2=O)nc2c(C(=O)NC3CCC3)cnn12` [Compound 112, N-cyclobutyl-5-((6′-methyl-2-oxo-2H-[1,2′-bipyridin]-3-yl)amino)-7-(methylamino)pyrazolo[1,5-a]pyrimidine-3-carboxamide], the IC50 was below 100 nM.

On to `CNc1cc(Nc2cccn(C)c2=O)nc2c(C(=O)NC3CCC3)cnn12` [Compound 113, N-cyclobutyl-5-((1-methyl-2-oxo-1,2-dihydropyridin-3-yl)amino)-7-(methylamino)pyrazolo[1,5-a]pyrimidine-3-carboxamide], for which the IC50 is below 100 nM.

Turning to `CNc1cc(Nc2cccn(-c3ccccn3)c2=O)nc2c(C(=O)NC3CCC3)cnn12` [Compound 114, N-cyclobutyl-7-(methylamino)-5-((2-oxo-2H-[1,2′-bipyridin]-3-yl)amino)pyrazolo[1,5-a]pyrimidine-3-carboxamide], the IC50 was below 100 nM.

Consider `CNc1cc(Nc2cccn(-c3ccccn3)c2=O)nc2c(C(=O)N[C@H]3C[C@H]3F)cnn12` [Compound 115, N-((1S,2R)-2-fluorocyclopropyl)-7-(methylamino)-5-((2-oxo-2H-[1,2′-bipyridin]-3-yl)amino)pyrazolo[1,5-a]pyrimidine-3-carboxamide], for which the IC50 is below 100 nM.

Turning to `CNc1cc(Nc2cnn(C3CCNC3=O)c2)nc2c(C(=O)NC3CC3)cnn12` (stereo not shown) [Compound 116, N-cyclopropyl-7-(methylamino)-5-((1-(2-oxopyrrolidin-3-yl)-1H-pyrazol-4-yl)amino)pyrazolo[1,5-a]pyrimidine-3-carboxamide], the IC50 lay within 1000 to 10000 nM.
